Our source for the TGI and GI50 values is PubChem BioAssay (NCI).

SMILES strings stand for the structures.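 Tested at 5 concentrations; 48 h exposure; 96-well plates; endpoints linearly interpolated, else capped at highest concentration. At the GI50, growth is halved. TGI is the concentration that stops growth completely.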 Some results are limits rather than exact numbers.

Test systems include 786-0 renal; A498 renal; UO-31 renal; K-562 leukemia; HT29 colon; OVCAR-8 ovarian; HOP-92 NSCLC; SN12C renal; RXF 393 renal; SF-539 CNS.
Assay in all cases: NCI-60 cell line screen, 48 h

Consider `Cc1cc(C)c(N=Nc2c(O)c(S(=O)(=O)O)cc3cc(S(=O)(=O)O)ccc23)cc1C`, for which the TGI with 786-0 renal, in the assay with A498 renal, in the assay on UO-31 renal, in the assay on K-562 leukemia, in the assay on HT29 colon and with OVCAR-8 ovarian was over 100 µM in each case. In addition, the TGI in the assay with HOP-92 NSCLC, in the assay on SN12C renal and in the assay on RXF 393 renal was over 100 µM in each case.

Regarding `CC(C)c1cccc(C(C)C)c1OS(=O)(=O)NC(=O)OC(C(F)(F)F)C(F)(F)F`, the TGI is over 100 µM with SF-539 CNS; over 100 µM with A498 renal; over 100 µM in the assay on UO-31 renal; 66.6 µM in the assay with K-562 leukemia; over 100 µM in the assay on OVCAR-8 ovarian; 59.9 µM with HOP-92 NSCLC. In the assay on SN12C renal, the TGI is over 100 µM.

With `CC[C@H](C)C1=C(OC(C)=O)[N@+]2([O-])Oc3ccc(-c4c(OC(C)=O)c(OC(C)=O)c(-c5ccc(OC(C)=O)cc5)c(OC(C)=O)c4OC(C)=O)cc3O[C@]2([C@@H](C)CC)C(=O)N1OC(C)=O`, the TGI is 33.8 µM in the assay with 786-0 renal; 28.5 µM in the assay with SF-539 CNS; 42.5 µM with A498 renal; over 50 µM in the assay with UO-31 renal; over 50 µM with K-562 leukemia; over 50 µM in the assay on HT29 colon. For the same molecule, the results for the TGI in the assay on OVCAR-8 ovarian, in the assay with SN12C renal and in the assay on RXF 393 renal were 37.6 µM, over 50 µM and over 50 µM, respectively.

Take `CN(C)c1ccc(/C=c2/c3cc([N+](=O)[O-])ccc3n3c2cc(-c2ccccc2)[n+]3C)cc1`: the TGI worked out at 10.3 µM in the assay with 786-0 renal; 3.6 µM in the assay with SF-539 CNS; 7.94 µM in the assay on A498 renal; 23 µM in the assay on UO-31 renal; 7.42 µM in the assay on K-562 leukemia; 6.76 µM with HT29 colon. Moreover, the TGI in the assay on OVCAR-8 ovarian was found to be 27.7 µM; in the assay with HOP-92 NSCLC, 3.16 µM.

In the case of `NCCCC[C@H](N)C(=O)Nc1ccc(-c2nc3ccccc3s2)cc1Cl`, the TGI is 8.11 µM with 786-0 renal; 2.07 µM in the assay with A498 renal; 18.3 µM with UO-31 renal; over 25 µM in the assay with K-562 leukemia; 18.1 µM in the assay on HT29 colon; over 43.9 µM in the assay with OVCAR-8 ovarian. Also, the TGI came to 60 µM in the assay with HOP-92 NSCLC, 27.7 µM in the assay on SN12C renal and 27.3 µM in the assay on RXF 393 renal.

Regarding `CC(=O)O[C@H]1CC[C@H]2[C@@H]3CCC(C(C)=O)[C@H](C(=O)O)[C@H]3CC[C@]12C` (some centres undefined), the TGI in the assay with SF-539 CNS, in the assay on A498 renal, in the assay on UO-31 renal, with K-562 leukemia, in the assay with HT29 colon and in the assay on OVCAR-8 ovarian was over 100 µM in each case. In addition, the TGI with HOP-92 NSCLC and in the assay with RXF 393 renal was over 100 µM throughout.

Regarding `CC(C)(C)OC(=O)N1N=NC2C3OC(CC3=O)C21` (centres undefined), the TGI with 786-0 renal, in the assay with SF-539 CNS, with A498 renal, with UO-31 renal, in the assay on K-562 leukemia and in the assay on HT29 colon was over 100 µM each time. Also, the TGI with OVCAR-8 ovarian, in the assay on HOP-92 NSCLC and in the assay on SN12C renal was over 100 µM in each case.

As to `CCCCNC(=S)Nc1nc(C(=O)NNC(=O)c2ccccc2)cs1`, the TGI in the assay with 786-0 renal was 35.2 µM; with A498 renal, 79.3 µM; in the assay on UO-31 renal, 28.5 µM; with K-562 leukemia it was over 100 µM; with HT29 colon, over 100 µM; with OVCAR-8 ovarian it was 66.9 µM. In addition, the TGI in the assay on HOP-92 NSCLC is over 100 µM; in the assay on SN12C renal it was 38 µM.

In the case of `CN(C)CCn1nc(N)c2nc3cc(C(F)(F)F)ccc3nc21`, the TGI with 786-0 renal, in the assay with A498 renal, in the assay on UO-31 renal, with K-562 leukemia, with HT29 colon and in the assay with OVCAR-8 ovarian was over 100 µM each time. The TGI with HOP-92 NSCLC, in the assay on SN12C renal and with RXF 393 renal was over 100 µM throughout.

Regarding `COc1ccc2[nH]c(O)c(/C=c3/cc4c(c(-c5ccc(F)cc5)n3)=Nc3ccccc3-4)c2c1`, the GI50 is 7.62 µM in the assay with SF-539 CNS; 13.2 µM in the assay on A498 renal; 15.5 µM in the assay with UO-31 renal; 2.45 µM in the assay with K-562 leukemia; 1.94 µM in the assay with HT29 colon; 2 µM in the assay with OVCAR-8 ovarian. For the same molecule, the values for the GI50 in the assay on HOP-92 NSCLC, in the assay on SN12C renal and in the assay with RXF 393 renal were 13.6 µM, 4.19 µM and 2.25 µM, respectively. Moreover, the TGI was determined as 20.6 µM in the assay with SF-539 CNS; 34.3 µM in the assay with A498 renal; 30.3 µM in the assay with UO-31 renal; 7.95 µM in the assay with K-562 leukemia; 3.85 µM with HT29 colon; 5.01 µM in the assay on OVCAR-8 ovarian. For the same molecule, the TGI was found to be 41.3 µM with HOP-92 NSCLC, 18.8 µM with SN12C renal and 7.53 µM in the assay on RXF 393 renal.

As to `Brc1cccc[n+]1-c1ccc2cc(-[n+]3ccccc3Br)ccc2c1`, the TGI in the assay with 786-0 renal was 69 µM; in the assay with SF-539 CNS, 40.1 µM; with A498 renal, over 100 µM; in the assay on UO-31 renal it was 38.5 µM; with K-562 leukemia, over 100 µM; in the assay with HT29 colon, over 100 µM. Besides, the TGI is over 100 µM in the assay on OVCAR-8 ovarian, over 100 µM in the assay on SN12C renal and 87.6 µM with RXF 393 renal.

Regarding `COc1cc(C=O)cc(C=Nc2ccc(S(N)(=O)=O)cc2)c1O`, the TGI was 7.94 µM with SF-539 CNS; 48.2 µM with A498 renal; over 100 µM in the assay with UO-31 renal; over 100 µM in the assay with K-562 leukemia; over 100 µM in the assay on HT29 colon; over 100 µM in the assay on OVCAR-8 ovarian. Further, the TGI in the assay with HOP-92 NSCLC stood at 21.7 µM; in the assay on SN12C renal, 35.5 µM; with RXF 393 renal, 14.5 µM.

`COC(=O)C(Cc1nc2ccccc2[nH]c1=O)C(=O)C(=O)Nc1cc(C(F)(F)F)ccc1Cl` (centres undefined): the TGI was 25.2 µM with 786-0 renal; over 100 µM in the assay with A498 renal; 28.9 µM with UO-31 renal; over 100 µM in the assay with K-562 leukemia; 28.6 µM in the assay with HT29 colon; 30 µM with OVCAR-8 ovarian. Moreover, the TGI with HOP-92 NSCLC worked out at 32.5 µM; with SN12C renal it was 54.8 µM; in the assay with RXF 393 renal, 46.3 µM.

With `CCOC(=O)NC(=O)c1c[nH]c(=O)[nH]c1=O`, the TGI with 786-0 renal, in the assay with SF-539 CNS, in the assay on A498 renal, in the assay with UO-31 renal, in the assay with K-562 leukemia and in the assay on HT29 colon was over 100 µM in each case. Further, the TGI in the assay on OVCAR-8 ovarian, in the assay on HOP-92 NSCLC and with SN12C renal was over 100 µM in each case.

`C/C=C1\CC(C(=O)OCC)CCCCCCCCCCC1=O` (centres undefined): the TGI in the assay on 786-0 renal, in the assay on SF-539 CNS, in the assay on A498 renal, with UO-31 renal, with HT29 colon and with OVCAR-8 ovarian was over 100 µM each time. The TGI with SN12C renal and in the assay with RXF 393 renal was over 100 µM throughout.

Turning to `COC[C@@H](Cc1ccc(OC)c(OC)c1)[C@@H](COC)Cc1ccc(OC)c(OC)c1`, the TGI with SF-539 CNS, with A498 renal, in the assay on UO-31 renal, with K-562 leukemia, in the assay on HT29 colon and with OVCAR-8 ovarian was over 100 µM each time. Also, the TGI in the assay on HOP-92 NSCLC, with SN12C renal and in the assay with RXF 393 renal was over 100 µM throughout.

Turning to `CC1(C)CC[C@]2(C(=O)O)[C@H](O)C[C@]3(C)C(=CC[C@@H]4[C@@]5(C)CC[C@H](OC6OC(C(=O)O)C(O)C(O)C6O)C(C)(C)[C@@H]5CC[C@]43C)[C@@H]2C1` (some centres undefined), the TGI in the assay with 786-0 renal is over 100 µM; in the assay with A498 renal, 37.4 µM; in the assay on UO-31 renal, 32 µM; in the assay on K-562 leukemia, over 100 µM; with HT29 colon it was over 100 µM; with OVCAR-8 ovarian, over 100 µM. In addition, the values for the TGI in the assay with HOP-92 NSCLC, with SN12C renal and in the assay with RXF 393 renal were 39.2 µM, 94.9 µM and 81.6 µM, respectively.

`CC1(C)C2CCC(N)(C2)C1O` (centres undefined): the TGI in the assay with 786-0 renal, in the assay with A498 renal, in the assay with UO-31 renal, in the assay with K-562 leukemia, with OVCAR-8 ovarian and with HOP-92 NSCLC was over 100 µM throughout. Moreover, the TGI in the assay with SN12C renal and with RXF 393 renal was over 100 µM each time.

`N=C(c1cccs1)C1(N2CCCCC2)CCCCC1`: the TGI with 786-0 renal was over 100 µM; with A498 renal it was 34 µM; in the assay with UO-31 renal, 30.5 µM; in the assay with K-562 leukemia, 32 µM; in the assay on HT29 colon, 34.5 µM; in the assay on HOP-92 NSCLC it was 37.5 µM. The values for the TGI in the assay with SN12C renal and in the assay with RXF 393 renal were 88.6 µM and 29.5 µM, respectively.

As to `C#CCOC(=O)C(N)CCSC` (centres undefined), the TGI in the assay on 786-0 renal, with A498 renal, with UO-31 renal, with HT29 colon, in the assay with OVCAR-8 ovarian and in the assay with HOP-92 NSCLC was over 100 µM each time. In addition, the TGI with SN12C renal and with RXF 393 renal was over 100 µM in each case.

As to `C[N+](C)([O-])CCCNc1ccnc2cccc([N+](=O)[O-])c12`, the TGI in the assay on 786-0 renal is over 100 µM; in the assay on SF-539 CNS, 53.1 µM; with A498 renal, over 100 µM; in the assay with UO-31 renal, over 100 µM; in the assay with K-562 leukemia, over 100 µM; in the assay with HT29 colon, over 100 µM. Besides, the TGI with OVCAR-8 ovarian was over 100 µM; in the assay on SN12C renal it was over 100 µM; in the assay on RXF 393 renal, 79.1 µM.
